This test deals with OCI-Ly1. Kind of test: Tumor growth of DLBCL cell line derived xenograft model OCI-Ly1. The test is classed as in vivo, mice. As to conditions: BCL6 sensitive tumor xenograft model (OCI-Ly1), 10 mg/kg BID. How it is done: Mice bearing subcutaneous tumors were orally (po) administered vehicle or Compound A at 1, 3, 10, or 30 mg/kg daily for 22 days (qd×22). Dosing began with tumors at an average of 140 mm^3. […] Statistical analyses were performed using 2-way ANOVA: p<0.0001 (****). Error bars represent standard error of the mean (±SEM).
Mice bearing subcutaneous tumors were orally (po) administered vehicle or Compound A at 1, 3, or 10 mg/kg bi-daily for 23 days (bid×23). Dosing began with tumors at an average of 170 mm^3. […] FIG. 7C depicts tumor lysate BCL6 protein levels 16-hours post-last dose analyzed by western blotting. Individual tumor BCL6 levels are shown in a scatter plot, mean is represented by the bar, determined by densitometry, normalized to GAPDH loading controls, and shown as a percentage of vehicle. Percent BCL6 degradation (%) relative to vehicle is shown above each arm. Statistical analyses were performed using 2-way ANOVA: p<0.0001 (****). Error bars represent standard error of the mean (±SEM).

Turning to `CNC(=O)COc1cc2cc(Nc3nc(N4CCC(O[C@H]5C[C@H](N6CCN(c7ccc8c(c7)CN([C@H]7CCC(=O)NC7=O)C8=O)C(C)(C)C6)C5)CC4)ncc3Cl)ccc2n(C(C)C)c1=O` [Compound 211, 2-({6-[(5-chloro-2-{4-[(1r,3r)-3-(4-{2-[(3S)-2,6-dioxopiperidin-3-yl]-1-oxo-2,3-dihydro-1H-isoindol-5-yl}-3,3-dimethylpiperazin-1-yl)cyclobutoxy]piperidin-1-yl}pyrimidin-4-yl)amino]-2-oxo-1-(proapn-2-yl)-1,2-dihydroquinolin-3-yl}oxy)-N-methylacetamide], the “Ly-1 TGI @ 10 mg/kg (BID)” value was determined as 87%.
In the case of `CNC(=O)COc1cc2cc(Nc3nc(N4CCC(O[C@H]5C[C@H](N6CCC(c7ccc8c(c7F)CN(C7CCC(=O)NC7=O)C8=O)CC6)C5)CC4)ncc3Cl)ccc2n(C(C)C)c1=O` (some centres unmarked) [Compound 81, 2-({6-[(5-chloro-2-{4-[(1r,3r)-3-{4-[2-(2,6-dioxopiperidin-3-yl)-4-fluoro-1-oxo-2,3-dihydro-1H-isoindol-5-yl]piperidin-1-yl}cyclobutoxy]piperidin-1-yl}pyrimidin-4-yl)amino]-2-oxo-1-(propan-2-yl)-1,2-dihydroquinolin-3-yl}oxy)-N-methylacetamide] it was 100%; in that of `CNC(=O)COc1cc2cc(Nc3nc(N4CCC(O[C@H]5C[C@H](N6CCC(c7cc(C)c8c(c7F)CN(C7CCC(=O)NC7=O)C8=O)CC6)C5)CC4)ncc3Cl)ccc2n(C(C)C)c1=O` (some centres unmarked) [Compound 208, 2-({6-[(5-chloro-2-{4-[(1r,3r)-3-{4-[2-(2,6-dioxopiperidin-3-yl)-4-fluoro-7-methyl-1-oxo-2,3-dihydro-1H-isoindol-5-yl]piperidin-1-yl}cyclobutoxy]piperidin-1-yl}pyrimidin-4-yl)amino]-2-oxo-1-(propan-2-yl)-1,2-dihydroquinolin-3-yl}oxy)-N-methylacetamide], 77%.
As for `CNC(=O)COc1cc2cc(Nc3nc(N4CCC(O[C@H]5C[C@H](N6CCC(c7ccc8c(c7Cl)CN(C7CCC(=O)NC7=O)C8=O)CC6)C5)CC4)ncc3Cl)ccc2n(C(C)C)c1=O` (some centres unmarked) [Compound 163, 2-({6-[(5-chloro-2-{4-[(1r,3r)-3-{4-[4-chloro-2-(2,6-dioxopiperidin-3-yl)-1-oxo-2,3-dihydro-1H-isoindol-5-yl]piperidin-1-yl}cyclobutoxy]piperidin-1-yl}pyrimidin-4-yl)amino]-2-oxo-1-(propan-2-yl)-1,2-dihydroquinolin-3-yl}oxy)-N-methylacetamide], the figure is 95%.
In the case of `CNC(=O)COc1cc2cc(Nc3nc(N4CCC(O[C@H]5C[C@H](N6CC[C@@H](c7ccc8c(c7F)CN([C@H]7CCC(=O)NC7=O)C8=O)C(C)(C)C6)C5)CC4)ncc3Cl)ccc2n(C(C)C)c1=O` [Compound 209, 2-({6-[(5-chloro-2-{4-[(1r,3r)-3-[(4R)-4-{2-[(3S)-2,6-dioxopiperidin-3-yl]-4-fluoro-1-oxo-2,3-dihydro-1H-isoindol-5-yl}-3,3-dimethylpiperidin-1-yl]cyclobutoxy]piperiidn-1-yl}pyrimidin-4-yl)amino]-2-oxo-1-(propan-2-yl)-1,2-dihydroquinolin-3-yl}oxy)-N-methylacetamide] it was 104%.

The record behind these values is US20240335444A1, “MODULATORS OF BCL6 PROTEOLYSIS AND ASSOCIATED METHODS OF USE” (Arvinas Operations, Inc., priority 2023, published 2024).
